Source: patent publication US7148029B2, “Immunoassay for neonicotinyl insecticides” (Syngenta Crop Protection, Inc., priority 1999, dated 2006)

Tests used:
[1] = test system: polyclonal antibody of the thiamethoxam immunoassay; assay: Cross reactivity of the thiamethoxam immunoassay (competitive enzyme immunoassay in antibody-coated tubes); type: binding; set-up: key to Percent Reactivity Relative to Thiamethoxam: NR, non-reactive; settings: for Percent Reactivity Relative to Thiamethoxam: test substances in 1% methanol/water, 1000 to 0.01 ng/ml
Protocol: The antibody-coated polystyrene culture tubes are labeled and placed in the tube rack such that the first and last tubes are standards and the remaining standards and samples are mixed. Sample and standard solutions (0.50-ml) are added to the corresponding tubes. A similar volume of enzyme conjugate solution is added. The rack is gently shaken to mix the solutions and set to incubate for 20 min at room temperature. The contents of all tubes are removed by inverting the rack over a stainless steel pan. Each tube is washed to overflowing with distilled water. The rack is inverted over the sink to dump the wash water. Washing is repeated four times. Then the rack is inverted and tapped gently on a paper towel to remove most of the remaining wash. […] The rack is gently shaken at 2.5 min intervals to ensure the enzyme maintains an ample supply of substrate. Generation of the blue colored signal is terminated by addition of acidic stop solution (0.50-ml). The absorbance of the solution in each tube is measured spectrophotometrically at 450 nm.
The concentration of analyte in the samples is determined from a regression function in the form of y=m ln(x)+b.
The cross reactivity, or specificity, of the immunoassay is evaluated to determine if other test substances found in seed coatings would interfere with measurement of thiamethoxam. Test substances are dissolved in 1% methanol/water to concentrations ranging from 1000 to 0.01 ng/ml. Aliquots of each concentration are analyzed as described above. The reactivity of each test substance over this range is determined as previously described in Brady, J. F; Turner, J.; Skinner, D. H. “Application of a triasulfuron enzyme immunoassay to the analysis of incurred residues in soil and water samples.” J. Agric. Food Chem. 1995, 43:2542–2547.

[2] = test system: polyclonal antibody of the thiamethoxam immunoassay; assay: Typical standard curve for the thiamethoxam immunoassay; type: binding
Protocol: A portion of the seed extract is diluted into 1% MeOH/H2O until the expected concentration of thiamethoxam is brought within range of the calibration curve, 0.5 to 120 parts per billion. Antibody-coated tubes are labeled and placed in a tube rack such that the first and last tubes are standards and the remaining standards and samples are intermixed. The tube rack grips each tube such that the rack may be inverted without loss of the tubes. An aliquot of a standard or sample (0.5 mL) is added to all corresponding tubes. Enzyme conjugate solution (0.5 mL) is added to all tubes. The rack is shaken gently to mix the contents of all tubes. Tubes are incubated for 20 min at room temperature. The rack is inverted to decant the contents of all tubes. Distilled H2O is added to all tubes to overflowing using a flip-top wash bottle and the wash is decanted. Tubes are washed an additional three times. After the final wash, the rack is inverted and the tubes are gently tapped upon a clean paper towel to remove excess wash. Enzyme substrate (0.5 mL) is added to all tubes which are incubated for 10 min at room temperature. The rack is shaken gently every 2.5 min during this incubation. Acidic stop solution (1 M HCl, 0.5 mL) is added to all tubes to terminate signal generation. […] The absorbances of the standards are used to construct a calibration curve, a regression function in the form of […]. The absorbance of each sample is inserted into the function to determine the concentration of the neonicotinoid pesticide in the diluted sample. The resulting concentration is multiplied by the dilution factor to calculate the amount of neonicotinoid pesticide in the original sample. The function describing the response of the thiamethoxam standards is generated by regression analysis.

With `FC(F)(F)C(=NOCC1OCCO1)c1ccc(Cl)cc1` [Fluxofenim] the “Percent Reactivity Relative to Thiamethoxam” value [1] was “NR”.
With `COCC(=O)N(c1c(C)cccc1C)[C@H](C)C(=O)OC` [Mefenoxam (R-Metalaxyl), Mefenoxam] the “Percent Reactivity Relative to Thiamethoxam” value [1] was “NR”.
In the case of `CCCCC(C#N)(Cn1cncn1)c1ccc(Cl)cc1` (stereo not drawn) [Systhane (Myclobutanil), Myclobutanil], the “Percent Reactivity Relative to Thiamethoxam” value [1] is reported as “NR”.
For `CC1=C(C(=O)Nc2ccccc2)SCCO1` [Carboxin], the “Percent Reactivity Relative to Thiamethoxam” value [1] was “NR”.
For `CC1COC(Cn2cncn2)(c2ccc(Oc3ccc(Cl)cc3)cc2Cl)O1` (stereo not drawn) [Difenoconazole], the “Percent Reactivity Relative to Thiamethoxam” value [1] was “NR”.
With `N#CSCSc1nc2ccccc2s1` [TCMTB] the “Percent Reactivity Relative to Thiamethoxam” value [1] was “NR”.
`CCN(CC)c1nc(C)cc(OP(=S)(OC)OC)n1` [Primifos-methyl] was tested, and the “Percent Reactivity Relative to Thiamethoxam” value [1] was “NR”.
With `CN/C(=N\[N+](=O)[O-])NCc1cnc(Cl)s1` [Clothiadin] the “Percent Reactivity Relative to Thiamethoxam” value [1] was less than 1.0%.
In the case of `COCC(=O)N(c1c(C)cccc1C)C(C)C(=O)OC` (stereo not drawn) [Metalaxyl], the “Percent Reactivity Relative to Thiamethoxam” value [1] is reported as “NR”.
For `CCOP(=S)(OCC)Oc1nc(Cl)c(Cl)cc1Cl` [Chlorpyrifos], the “Percent Reactivity Relative to Thiamethoxam” value [1] was “NR”.
`O=C1C2CC=CCC2C(=O)N1SC(Cl)(Cl)Cl` (stereo not drawn) [Captan] was tested, and the “Percent Reactivity Relative to Thiamethoxam” value [1] was “NR”.
In the case of `O=[N+]([O-])NC1=NCCN1Cc1ccc(Cl)nc1` [Imidacloprid], the “Percent Reactivity Relative to Thiamethoxam” value [1] is reported as “^2NR”.
With `O=[N+]([O-])c1c(Cl)c(Cl)c(Cl)c(Cl)c1Cl` [Pentachloronitrobenzene] the “Percent Reactivity Relative to Thiamethoxam” value [1] was “NR”.
In the case of `N#Cc1c[nH]cc1-c1cccc2c1OC(F)(F)O2` [Fludioxonil], the “Percent Reactivity Relative to Thiamethoxam” value [1] is reported as “NR”.
In the case of `COC(=O)NC(=S)Nc1ccccc1NC(=S)NC(=O)OC` [Thiophanate-methyl], the “Percent Reactivity Relative to Thiamethoxam” value [1] is reported as “NR”.
For `CN1COCN(Cc2cnc(Cl)s2)/C1=N\[N+](=O)[O-]` [Thiamethoxam], the “Absorbance at 450 nm (Analytical response)” value (“Absorbance at 450 nm” below) ([2]; Concentration of Thiamethoxam 0.5 Parts Per Billion) was 1.3618, the “Absorbance at 450 nm” value ([2]; Concentration of Thiamethoxam 3 Parts Per Billion) was 1.0283 and the “Absorbance at 450 nm” value ([2]; Concentration of Thiamethoxam 20 Parts Per Billion) was 0.6636. The “Absorbance at 450 nm” value ([2]; Concentration of Thiamethoxam 120 Parts Per Billion) was 0.3145, the “reactivity with the immunoassay (in words)” value ([1]; among the test substances analyzed) was “significantly reactive” and the “Percent Reactivity Relative to Thiamethoxam” value [1] was 100%.
